For three molecules, Kd results are on record in article PMC8190895 (RSC Chemical Biology, 2021).

Common to all, as to experiment: ITC
Type in all cases: binding

Assay [1] concerns the target T1, Gal-8C (C-terminal CRD of human galectin-8) (Homo sapiens, UniProt O00214).
T1 sequence (O00214 184-317): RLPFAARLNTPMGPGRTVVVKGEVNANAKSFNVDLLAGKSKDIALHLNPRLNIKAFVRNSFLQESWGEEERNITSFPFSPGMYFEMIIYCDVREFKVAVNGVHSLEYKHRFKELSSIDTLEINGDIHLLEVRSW
The settings on record: PBS (50 mM sodium phosphate, 150 mM NaCl) pH 7.4, 1 mM TCEP, 298 K.

The target of assay [2] is T2, Gal-8FL (full-length human galectin-8) (Homo sapiens, UniProt O00214).
T2 sequence (O00214 1-317): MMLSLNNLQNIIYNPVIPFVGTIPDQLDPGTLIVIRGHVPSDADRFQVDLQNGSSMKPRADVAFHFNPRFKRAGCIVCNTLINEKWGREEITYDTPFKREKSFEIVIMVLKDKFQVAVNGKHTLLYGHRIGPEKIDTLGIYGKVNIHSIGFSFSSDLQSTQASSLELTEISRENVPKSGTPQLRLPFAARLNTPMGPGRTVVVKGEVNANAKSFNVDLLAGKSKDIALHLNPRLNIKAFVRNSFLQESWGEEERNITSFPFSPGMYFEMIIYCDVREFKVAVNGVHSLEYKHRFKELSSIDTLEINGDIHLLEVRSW
Conditions: PBS (50 mM sodium phosphate, 150 mM NaCl) pH 7.4, 1 mM TCEP, 298 K.

In assay [3] the target is T3, Gal-8N (N-terminal CRD of human galectin-8) (Homo sapiens, UniProt O00214).
T3 sequence (O00214 1-155): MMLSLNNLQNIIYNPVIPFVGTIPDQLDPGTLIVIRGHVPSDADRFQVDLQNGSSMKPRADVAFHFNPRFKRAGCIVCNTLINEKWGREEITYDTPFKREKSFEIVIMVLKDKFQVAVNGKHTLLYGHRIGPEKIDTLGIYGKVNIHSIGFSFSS
The settings on record: read-out: Neu5Acα2-3Galb1-3GalNAc (3); PBS (50 mM sodium phosphate, 150 mM NaCl) pH 7.4, 1 mM TCEP, 298 K.

Each structure is given as a SMILES string. Like-named read-outs stand apart in the source and are kept apart here.

Regarding `CC(=O)N[C@H]1[C@@H](O[C@H]2[C@@H](O)[C@@H](CO)O[C@@H](O[C@H]3[C@H](O)[C@@H](NC(C)=O)C(O)O[C@@H]3CO)[C@@H]2O[C@@H]2O[C@@H](C)[C@@H](O)[C@@H](O)[C@@H]2O)O[C@H](CO)[C@H](O)[C@@H]1O` (stereo partly drawn) [compound 6, A type II], the Kd was found to be 13.45 ± 0.05 µM in assay [1] (read-out: A type II (6)) and 12 ± 1 µM in assay [2] (read-out: A type II (6), site: C-terminal CRD, not pre-loaded).
As to `CC(=O)N[C@H]1C(O)O[C@H](CO)[C@@H](O[C@@H]2O[C@H](CO)[C@H](O)[C@H](O[C@H]3O[C@H](CO)[C@H](O)[C@H](O)[C@H]3O)[C@H]2O[C@@H]2O[C@@H](C)[C@@H](O)[C@@H](O)[C@@H]2O)[C@@H]1O` (stereo partly drawn) [compound 5, B type II], the Kd in assay [1] (read-out: B type II (5)) stood at 18.4 ± 0.1 µM; in assay [2] (read-out: B type II (5), site: C-terminal CRD) it was 36.7 ± 0.6 µM.
As for `CC(=O)N[C@H]1[C@H]([C@H](O)[C@H](O)CO)O[C@@](O[C@H]2[C@@H](O)[C@@H](CO)O[C@@H](O[C@H]3[C@@H](O)[C@@H](CO)OC(O)[C@@H]3NC(C)=O)[C@@H]2O)(C(=O)O)C[C@@H]1O` (stereo partly drawn) [compound 3, 3-sialyl-Galβ1–3GalNAc], the Kd is 2.2 ± 0.1 µM in assay [3] and 4.3 ± 0.4 µM in assay [2] (read-out: Neu5Acα2-3Galb1-3GalNAc (3), site: N-terminal CRD, not pre-loaded).
